# Laboratory results taken from US20020035061A1, “COMPOSITIONS AND METHODS FOR TREATING INFECTIONS USING CATIONIC PEPTIDES ALONE OR IN COMBINATION WITH ANTIBIOTICS” (priority 1996, published 2002).
# Like-named read-outs stand apart in the source and are kept apart here.
# Tests used:
# [1] = test system: mammalian red blood cells; details: 37° C., 1 hour
# Protocol: Candidate cationic peptides may be further tested for their toxicity to normal mammalian cells. An exemplary assay is a red blood cell (RBC) (erythrocyte) hemolysis assay. Briefly, in this assay, red blood cells are isolated from whole blood, typically by centrifugation, and washed free of plasma components. A 5% (v/v) suspension of erythrocytes in isotonic saline is incubated with different concentrations of peptide analogue. […] After incubation for approximately 1 hour at 37° C., the cells are centrifuged, and the absorbance of the supernatant at 540 nm is determined. A relative measure of lysis is determined by comparison to absorbance after complete lysis of erythrocytes using NH4Cl or equivalent (establishing a 100% value). A peptide with <10% lysis at 100 μg/ml is suitable. Preferably, there is <5% lysis at 100 μg/ml. Such peptides that are not lytic, or are only moderately lytic, are desirable and suitable for further screening.
# Cationic peptides are tested for toxicity towards eukaryotic cells by measuring the extent of lysis of mammalian red blood cells (RBC). Briefly, in this assay, red blood cells are separated from whole blood by centrifugation and washed free of plasma components. A 5% (v/v) washed red blood cell suspension is prepared in isotonic saline. An aliquot of peptide in formulation is then added and mixed in. After incubation at 37° C. for 1 hour with constant agitation, the solution is centrifuged and the supernatant measured for absorbance at 540 nm to detect released hemoglobin.
# A combination of cationic peptide and antibiotic agent is tested for toxicity towards eukaryotic cells by measuring the extent of lysis of mammalian red blood cells. Briefly, red blood cells are separated from whole blood by centrifugation, washed free of plasma components, and resuspended to a 5% (v/v) suspension in isotonic saline. […] Following incubation with constant agitation at 37° C. for 1 hour, the solution is centrifuged, and the absorbance of the supernatant is measured at 540 nm, which detects released hemoglobin. […]
# P. mirabilis = experiment: Agarose dilution assay (MIC); format: cell-based; details: P. mirabilis strain PM001
# H. influenzae = experiment: Agarose dilution assay (MIC); format: cell-based; details: H. influenzae strain HIN002
# E. faecalis = format: cell-based
# [2] = test system: inherently resistant microorganisms; experiment: microbe, parasite or virus in culture; format: cell-based; details: S. aureus MRSA
# S. pyogenes = experiment: Agarose dilution assay (MIC); format: cell-based; details: S. pyogenes strain SPY002
# S. marcescens = format: cell-based; details: for Peptide MIC values: agarose dilution
# S. aureus = format: cell-based; details: for Peptide MIC values: agarose dilution
# [3] = test system: microorganisms with acquired resistance; experiment: microbe, parasite or virus in culture; format: cell-based; details: for Peptide MIC Alone: Piperacillin section; for FIC: peptide + Piperacillin
# E. coli = format: cell-based; details: for Peptide MIC values: agarose dilution
# P. aeruginosa = format: cell-based; details: for Peptide MIC values: agarose dilution
# K. pneumoniae = format: cell-based
# S. pneumoniae = experiment: Agarose dilution assay (MIC); format: cell-based; details: for Peptide MIC values: agarose dilution
# S. maltophilia = format: cell-based; details: S. maltophilia strain SMA001
# bacterial isolates = experiment: microbe, parasite or virus in culture; format: cell-based
# [4] = test system: MSSA (Smith, ATCC # 19640); experiment: In vivo efficacy, MSSA infection; set-up: species or system S. aureus; details: 18 mg/kg ip, formulation D, 60 min post-infection; end of eight day observation
# [5] = test system: MCF-7ADR, breast carcinoma, multidrug resistant; experiment: Cell death by Cytotox (Promega) lactate dehydrogenase release; format: cell-based; details: LDH release
# Protocol: (§1) In addition, APO-peptides and parent peptides are tested against a panel of cancer cell lines. Cell death is measured using the Cytotox (Promega) assay kit which measures the release of lactate dehydrogenase.
# (§2) PBL, peripheral blood lymphocytes; HUVEC, human umbilical vein endothelial cells; H460,non-small lung tumor; K562, chronic myelogenous leukemia; DoHH-2, B-cell cell lymphoma; P388, lymphocytic leukemia; P388ADR, lymphocytic leukemia, multidrug resistant; MCF-7, breast carcinoma; MCF-7ADR, breast carcinoma, multidrug resistant.
# [6] = test system: P388ADR, lymphocytic leukemia, multidrug resistant; experiment: as above; format: cell-based; details: LDH release
# Protocol: as §1, §2
# [7] = test system: P388, lymphocytic leukemia; experiment: as above; format: cell-based; details: LDH release
# Protocol: as §1, §2
# [8] = test system: K562, chronic myelogenous leukemia; experiment: as above; format: cell-based; details: LDH release
# Protocol: as §1, §2
# [9] = test system: PBL, peripheral blood lymphocytes; experiment: as above; format: cell-based; details: LDH release
# Protocol: as §1, §2
# [10] = test system: H460, non-small lung tumor; experiment: as above; format: cell-based; details: LDH release
# Protocol: as §1, §2
# MCF-7, breast carcinoma = experiment: as above; format: cell-based; details: LDH release
# Protocol: as §1, §2
# [11] = test system: DoHH-2, B-cell cell lymphoma; experiment: as above; format: cell-based; details: LDH release
# Protocol: as §1, §2
# [12] = test system: HUVEC, human umbilical vein endothelial cells; experiment: as above; format: cell-based; details: LDH release
# Protocol: as §1, §2
# E. faecium = format: cell-based; details: for MIC: E. faecium strain EFM003
# E. cloacae = format: cell-based; details: E. cloacae strain ECL007
# A. calcoaceticus = format: cell-based; details: A. calcoaceticus strain AC001
# S. epidermidis = format: cell-based; details: S. epidermidis strain SE002
# P. vulgaris = experiment: Agarose dilution assay (MIC); format: cell-based
molecule,measurement,setting,value
CC[C@H](C)[C@H](NC(=O)CNC(=O)[C@@H](NC(=O)[C@H](CCCCN)NC(=O)[C@H](CCCCN)NC(=O)[C@H](Cc1ccccc1)NC(=O)[C@H](CC(C)C)NC(=O)[C@H](CCCCN)NC(=O)[C@H](Cc1c[nH]c2ccccc12)NC(=O)[C@@H](N)CCCCN)[C@@H](C)CC)C(=O)NCC(=O)N[C@@H](C)C(=O)N[C@H](C(=O)N[C@@H](CC(C)C)C(=O)N[C@@H](CCCCN)C(=O)N[C@H](C(=O)N[C@@H](CC(C)C)C(=O)N[C@H](C(=O)N[C@H](C(=O)NCC(=O)N[C@@H](CC(C)C)C(=O)N1CCC[C@H]1C(=O)N[C@@H](C)C(=O)N[C@@H](CC(C)C)C(=O)N[C@@H](CCCCN)C(=O)N[C@@H](CC(C)C)C(=O)N[C@H](C(=O)N[C@@H](CCCCN)C(=O)O)[C@@H](C)O)[C@@H](C)O)[C@@H](C)O)C(C)C)C(C)C [MBI 28],% Lysis,[1],4.7%
ILKKWPWWPWRRK [MBI 11E3CN],MIC,P. mirabilis,>128 µg/mL
same,MIC,H. influenzae,>128 µg/mL
same,MIC,E. faecalis; E. faecalis strain EFS004,8 µg/mL
same,Peptide MIC + Piperacillin,[2],2 µg/mL
same,Peptide MIC Alone,[2]; Piperacillin section,4 µg/mL
same,FIC,[2]; peptide + Piperacillin,0.51
same,MIC,S. pyogenes,16 µg/mL
same,MIC,S. marcescens; S. marcescens strain SMS004,>128 µg/mL
same,MIC,S. aureus; S. aureus strain SA010,2 µg/mL
same,Peptide MIC + Piperacillin,[3]; A. calcoaceticus 3,8 µg/mL
same,Piperacillin MIC + Peptide,[3]; A. calcoaceticus 3,16 µg/mL
same,Peptide MIC Alone,[3]; A. calcoaceticus 3,32 µg/mL
same,Peptide MIC + Piperacillin,[3]; H. influenzae 1,64 µg/mL
same,Piperacillin MIC + Peptide,[3]; H. influenzae 1,8 µg/mL
same,Peptide MIC Alone,[3]; H. influenzae 1,>128 µg/mL
same,Peptide MIC + Piperacillin,[3]; H. influenzae 2,16 µg/mL
same,Piperacillin MIC + Peptide,[3]; H. influenzae 2,8 µg/mL
same,Peptide MIC Alone,[3]; H. influenzae 2,>128 µg/mL
same,Peptide MIC + Piperacillin,[3]; P. aeruginosa 7,32 µg/mL
same,Piperacillin MIC + Peptide,[3]; P. aeruginosa 7,64 µg/mL
same,Peptide MIC Alone,[3]; P. aeruginosa 7,64 µg/mL
same,Peptide MIC + Piperacillin,[3]; P. aeruginosa 23,1 µg/mL
same,Piperacillin MIC + Peptide,[3]; P. aeruginosa 23,32 µg/mL
same,Peptide MIC Alone,[3]; P. aeruginosa 23,64 µg/mL
same,Peptide MIC + Piperacillin,[3]; S. maltophilia 3,16 µg/mL
same,Piperacillin MIC + Peptide,[3]; S. maltophilia 3,16 µg/mL
same,Peptide MIC Alone,[3]; S. maltophilia 3,32 µg/mL
same,Peptide MIC + Piperacillin,[3]; S. maltophilia 4,16 µg/mL
same,Piperacillin MIC + Peptide,[3]; S. maltophilia 4,16 µg/mL
same,Peptide MIC Alone,[3]; S. maltophilia 4,32 µg/mL
same,Peptide MIC + Piperacillin,[3]; S. marcescens SB1,2 µg/mL
same,Piperacillin MIC + Peptide,[3]; S. marcescens SB1,16 µg/mL
same,Peptide MIC Alone,[3]; S. marcescens SB1,>128 µg/mL
same,FIC,[3]; A. calcoaceticus 3,0.75
same,FIC,[3]; H. influenzae 1,0.38
same,FIC,[3]; H. influenzae 2,0.31
same,FIC,[3]; P. aeruginosa 7,1.00
same,FIC,[3]; P. aeruginosa 23,0.27
same,FIC,[3]; S. maltophilia 3,0.75
same,FIC,[3]; S. maltophilia 4,0.75
same,FIC,[3]; S. marcescens SB1,0.26
same,MIC,E. coli; E. coli strain ECO001,4 µg/mL
same,MIC,P. aeruginosa; P. aeruginosa strain PA041,64 µg/mL
same,MIC,K. pneumoniae; K. pneumoniae strain KP002,32 µg/mL
same,MIC,S. pneumoniae; S. pneumoniae strain SBSPN2,>128 µg/mL
same,MIC,S. pneumoniae; S. pneumoniae strain SPN044,>128 µg/mL
same,MIC,S. maltophilia,32 µg/mL
same,Peptide MIC + Piperacillin,bacterial isolates; H. influenzae 1,4 µg/mL
same,Piperacillin MIC + Peptide,bacterial isolates; H. influenzae 1,32 µg/mL
same,Peptide MIC Alone,"bacterial isolates; H. influenzae 1, Piperacillin section",>128 µg/mL
same,Peptide MIC + Piperacillin,bacterial isolates; H. influenzae 2,16 µg/mL
same,Piperacillin MIC + Peptide,bacterial isolates; H. influenzae 2,8 µg/mL
same,Peptide MIC Alone,"bacterial isolates; H. influenzae 2, Piperacillin section",>128 µg/mL
same,Peptide MIC + Piperacillin,bacterial isolates; P. aeruginosa 23,1 µg/mL
same,Piperacillin MIC + Peptide,bacterial isolates; P. aeruginosa 23,32 µg/mL
same,Peptide MIC Alone,"bacterial isolates; P. aeruginosa 23, Piperacillin section",64 µg/mL
same,Peptide MIC + Piperacillin,bacterial isolates; P. aeruginosa 32,8 µg/mL
same,Piperacillin MIC + Peptide,bacterial isolates; P. aeruginosa 32,32 µg/mL
same,Peptide MIC Alone,"bacterial isolates; P. aeruginosa 32, Piperacillin section",64 µg/mL
same,Peptide MIC + Piperacillin,bacterial isolates; S. aureus 19 MRSA,1 µg/mL
same,Piperacillin MIC + Peptide,bacterial isolates; S. aureus 19 MRSA,64 µg/mL
same,Peptide MIC Alone,"bacterial isolates; S. aureus 19 MRSA, Piperacillin section",4 µg/mL
same,Peptide MIC + Piperacillin,bacterial isolates; S. maltophilia 11,64 µg/mL
same,Piperacillin MIC + Peptide,bacterial isolates; S. maltophilia 11,2 µg/mL
same,Peptide MIC Alone,"bacterial isolates; S. maltophilia 11, Piperacillin section",128 µg/mL
same,Peptide MIC + Piperacillin,bacterial isolates; S. marcescens SB1,2 µg/mL
same,Piperacillin MIC + Peptide,bacterial isolates; S. marcescens SB1,16 µg/mL
same,Peptide MIC Alone,"bacterial isolates; S. marcescens SB1, Piperacillin section",>128 µg/mL
same,FIC,"bacterial isolates; peptide + Piperacillin, H. influenzae 1",0.52
same,FIC,"bacterial isolates; peptide + Piperacillin, H. influenzae 2",0.31
same,FIC,"bacterial isolates; peptide + Piperacillin, P. aeruginosa 23",0.27
same,FIC,"bacterial isolates; peptide + Piperacillin, P. aeruginosa 32",0.63
same,FIC,"bacterial isolates; peptide + Piperacillin, S. aureus 19 MRSA",0.50
same,FIC,"bacterial isolates; peptide + Piperacillin, S. maltophilia 11",0.51
same,FIC,"bacterial isolates; peptide + Piperacillin, S. marcescens SB1",0.26
same,% Survival,[4],70%
same,"LC50 ± S.E., MCF-7 ADR",[5],5.3 ± 1 µg/mL
same,"LC50 ± S.E., P388 ADR",[6],7.9 ± 3 µg/mL
same,"LC50 ± S.E., P388",[7],13.9 ± 3 µg/mL
same,"LC50 ± S.E., K562",[8],9 µg/mL
same,"LC50 ± S.E., PBL",[9],22 ± 11 µg/mL
same,"LC50 ± S.E., H460",[10],18 µg/mL
same,"LC50 ± S.E., MCF-7","MCF-7, breast carcinoma",5.6 ± 2 µg/mL
same,"LC50 ± S.E., DoHH-2",[11],3.6 µg/mL
same,"LC50 ± S.E., HUVEC",[12],117 ± 7 µg/mL
same,MIC,E. faecium,2 µg/mL
same,MIC,E. cloacae,>128 µg/mL
same,MIC,A. calcoaceticus,16 µg/mL
ILKKYPYYPYRRK [MBI 11A3CN],MIC,H. influenzae,>128 µg/mL
same,MIC,E. faecalis; E. faecalis strain EFS002,>128 µg/mL
same,MIC,S. marcescens; S. marcescens strain SBSM2,>128 µg/mL
same,Peptide MIC values,S. marcescens; S. marcescens SM76,>128 µg/mL
same,Peptide MIC values,S. marcescens; S. marcescens SM82,>128 µg/mL
same,MIC,S. aureus; S. aureus strain SA004,32 µg/mL
same,Peptide MIC values,S. aureus; S. aureus ATCC 29213,16 µg/mL
same,Peptide MIC values,S. aureus; S. aureus MRSA9,128 µg/mL
same,Peptide MIC values,S. aureus; S. aureus MRSA13,>128 µg/mL
same,Peptide MIC values,S. aureus; S. aureus MRSA17,>128 µg/mL
same,Peptide MIC values,S. aureus; S. aureus SA206,>128 µg/mL
same,MIC,E. coli; E. coli strain ECO002,>128 µg/mL
same,Peptide MIC values,E. coli; E. coli ATCC 25922,>128 µg/mL
same,Peptide MIC values,E. coli; E. coli ESS,>128 µg/mL
same,Peptide MIC values,E. coli; E. coli NCTC 10418,64 µg/mL
same,MIC,P. aeruginosa; P. aeruginosa strain PA002,>128 µg/mL
same,Peptide MIC values,P. aeruginosa; P. aeruginosa ATCC 27853,>128 µg/mL
same,Peptide MIC values,P. aeruginosa; P. aeruginosa NCTC 10662,>128 µg/mL
same,MIC,S. epidermidis,128 µg/mL
same,MIC,K. pneumoniae; K. pneumoniae strain KP001,>128 µg/mL
same,MIC,S. pneumoniae; S. pneumoniae strain SBSPN3,>128 µg/mL
same,Peptide MIC values,S. pneumoniae; S. pneumoniae 406LE8,>128 µg/mL
same,Peptide MIC values,S. pneumoniae; S. pneumoniae 60120,>128 µg/mL
same,Peptide MIC values,S. pneumoniae; S. pneumoniae ATCC 49619,>128 µg/mL
same,MIC,S. maltophilia,>128 µg/mL
same,Mupirocin MIC + Peptide,bacterial isolates; E. coli SBECO1,30 µg/mL
same,Peptide MIC + Mupirocin,bacterial isolates; E. coli SBECO1,8 µg/mL
same,Peptide MIC Alone,"bacterial isolates; E. coli SBECO1, Mupirocin section",64 µg/mL
same,FIC,"bacterial isolates; peptide + Mupirocin, E. coli SBECO1",0.43
same,MIC,P. vulgaris; P. vulgaris strain SBPV1,>128 µg/mL
same,Peptide MIC values,"P. vulgaris; agarose dilution, P. vulgaris ATCC 13315",>128 µg/mL
same,"LC50 ± S.E., P388 ADR",[6],>300 µg/mL
same,"LC50 ± S.E., P388",[7],>300 µg/mL
same,"LC50 ± S.E., K562",[8],>500 µg/mL
same,"LC50 ± S.E., PBL",[9],>500 µg/mL
same,"LC50 ± S.E., H460",[10],>500 µg/mL
same,"LC50 ± S.E., DoHH-2",[11],>500 µg/mL
same,"LC50 ± S.E., HUVEC",[12],>500 µg/mL
same,MIC,E. faecium,64 µg/mL
same,Peptide MIC values,E. faecium; agarose dilution,>128 µg/mL
same,MIC,E. cloacae,>128 µg/mL
same,MIC,A. calcoaceticus,>128 µg/mL
